In patent US9005581B2, “Modified pyrazine derivatives and uses thereof” (MediBeacon, LLC, priority 2008, dated 2015):
Marks after values point to notes of the source that are not given here.

Tests used:
[1] = Urine elimination studies; format: in vivo, Sprague-Dawley rats; details: rat, 1 mL of 2 mM in PBS by tail vein injection, mean ± SEM (n)
Description: Rat urine elimination studies are conducted in either conscious or anesthetized Sprague-Dawley rats. The test compound (1 mL, 2 mM in PBS) is administered by tail vein injection into conscious, restrained rats, with subsequent collection of urine at the time points of 2, 4 and 6 h post injection. The metabolic cages are washed with water to maximize the recovery of urine discharged at each time point. Alternatively, rats are anesthetized with 100 mg/kg Inactin intraperitoneally, a trachea tube is inserted to maintain adequate respiration, and 1 mL of test compound is injected into the lateral tail vein. Rats are placed on 37° C. heating pad during the entire experiment. At 6 h post injection, the abdomen is opened, and the urine is removed from the bladder using a 21 gauge needle and a 3 cc syringe. Quantitation of each compound in urine is performed via HPLC analysis using a set of external calibration standards and fluorescence detection. The percent recovery of compound in urine at each time point is calculated based on the balance of mass.

[2] = Photophysical properties (fluorescence excitation/emission in PBS); format: physicochemical; details: 10 μM solution in PBS
Description: In general, renally excretable compounds are dissolved in PBS buffer to form a 2 mM stock solution. The UV absorbance properties are determined on a 100 μM solution in PBS using a UV-3101PC UV-Vis-NIR Scanning spectrophotometer system from Shimadzu. The fluorescence properties (λex, λem, and CPS at λem) are determined on a 10 μM solution in PBS using a Fluorolog-3 spectrofluorometer system from Jobin Yvon Horiba. The percent plasma protein binding is determined on a 20 μM compound solution in rat plasma incubated at 37° C. for 1 h. The separation of free from bound is made using an Amicon Centrifree YM-30 device (Regenerated Cellulose 30,000 MWCO) and a Z400K Refrigerated Universal Centrifuge from Hermle. The concentration of protein-free is determined via HPLC analysis using a set of external calibration standards and fluorescence detection.

[3] = Non-invasive optical pharmacokinetic studies (fluorescence at the ear); format: in vivo, Sprague-Dawley rats; details: rat ear fluorescence, 1 mL of 2 mM solution into tail vein; mean ± SEM (n)
Description: Male Sprague-Dawley rats (330-380 g) are anesthetized by Inactin (I.P.) or 2% Isoflurane gas anesthesia delivered by a small rodent gas anesthesia machine (RC2, Vetequip, Pleasanton, Calif.). The animals are placed on a heated board where temperature is maintained between 36-38° C. One ear lobe is glued flat to a glass slide positioned approximately 2 mm beneath a fiber optic bundle for recording fluorescence from a test compound passing through the ear. After a 100 second baseline recording, 1 mL of a 2 mM solution is injected into the tail-vein of the rat and the fluorescence signal corresponding to plasma and tissue distribution and subsequent renal clearance of the compound is monitored at the ear. The pharmacokinetic parameters of the compounds are analyzed using WinNonLin pharmacokinetic modeling software (Pharsight, Mountain View, Calif.) and Microsoft (Redmond, Wash.) Excel. This method is used to detect renally excretable compounds of the invention and FIG. 8A provides a plot illustrating non-invasive in vivo fluorescence as a function of time following delivery of a renally excretable compound.
A nominal 473 nm solid state laser source (100) is employed (Power Technology model LDCU12/7314). The laser source is directed into one leg (110) of a silica bifurcated fiber optic bundle (120) (Oriel #77565). The common end of this bifurcated bundle (130) is placed approximately 2 mm from the rat ear (140). The second leg of the bifurcated fiber optic bundle (150) is fitted with a collimating beam probe (160) (Oriel #77644). A long pass filter (170) (Semrock LP02-488RS-25) and narrow band interference filter (180) (Semrock FF01-593/40-25) are placed in front of a photomultiplier tube (190) (Hamamatsu photosensor module H7827-011).
A chopper (200) (Stanford Research Systems model SR540) is placed after the laser and before the launch into the bifurcated cable. The output of the photosensor is connected to a lock-in amplifier (210) (Stanford Research Systems model SR830). The lock-in output is digitized (220) (National Instruments NI-USB-6211) and the digitized data is acquired by computer using LabVIEW® data acquisition software (230).

[4] = Invasive pharmacokinetic studies (plasma concentration); format: in vivo, Sprague-Dawley rats; details: rat plasma, 1 mL of 2 mM solution i.v., mean ± SEM (n); for clearance: male, Sprague-Dawley, iv, 1 mL of a 2 mM solution, read-out: Pharmacokinetics Clearance
Description: (§1) Male Sprague-Dawley rats (330-380 g) are anesthetized by Inactin (I.P.). Rats are surgically instrumented with a trachea tube (PE-190) to facilitate breathing and femoral artery and vein catheters (PE-50 filled with 20 units/mL heparinized saline) for blood sampling and drug administration respectively. After administration of 1 mL of a 2 mM solution of agent, approximately 200 μL blood is sampled and placed into a heparinized tube (Microtainer Brand Tube w/Lithium Heparin, BD 365971) at 0, 1, 6, 12, 18, 30, 45, 60, 90, 120 min. The concentration of compound in each centrifuged plasma sample is determined via HPLC analysis using a set of external calibration standards and fluorescence detection. The resulting pharmacokinetic parameters of the compound are analyzed using WinNonLin pharmacokinetic modeling software (Pharsight, Mountain View, Calif.). This method is used to detect renally excretable compounds of the invention and FIG. 8B provides a plot illustrating invasive PK (plasma concentration) as a function of time following delivery of a renally excretable compound.

[5] = Probenecid inhibition studies (invasive pharmacokinetics after probenecid); format: in vivo, Sprague-Dawley rats; details: rat plasma, 70 mg/kg Probenecid 10 min prior to test compound, values in brackets, mean ± SEM (n)
Description: as §1
Six male Sprague-Dawley rats are treated in the same manner as described above in the invasive pharmacokinetic studies. These 6 rats receive 70 mg/kg Probenecid (Sigma-Aldrich; St. Louis, Mo.) 10 min prior to the test compound; this administration is flushed with 0.2 ml NaCl.

Structure (SMILES)	Percent found in Urine (6 hrs) [1]	Photophysical Properties Emission λmax [2]	Photophysical Properties Excitation λmax [2]	Tissue Clearance (Optical) T1/2β [3]	clearance [4]	Pharmacokinetics T1/2β [4]	clearance ([5]; male, Sprague-Dawley, iv, with probenecid 70 mg/kg, 10 min prior to the test compound, read-out: Pharmacokinetics Clearance, probenecid challenge experiment)	Pharmacokinetics T1/2β, probenecid challenge experiment [5]
COCCOCCOCCOCCCNc1nc(C(=O)NCC(O)CO)c(NCCCOCCOCCOCCOC)nc1C(=O)NCC(O)CO (stereo not shown) [Compound 13, 3,6-Bis(2,5,8,11-tetraoxatetradecan-14-ylamino)-N^2,N^5-bis(2,3-dihydroxypropyl)pyrazine-2,5-dicarboxamide]	29 ± 2 (3) Percent							
COCCOCCOCCOCCOCCOCCOCCOCCCNc1nc(C(=O)N[C@H](CO)C(=O)O)c(NCCCOCCOCCOCCOCCOCCOCCOCCOC)nc1C(=O)N[C@H](CO)C(=O)O [Compound 8, 3,6-Bis(2,5,8,11,14,17,20,23-octaoxahexacosan-26-ylamino)-N^2,N^5-bis[(R)-1-carboxy-2-hydroxyethyl]pyrazine-2,5-dicarboxamide]	61 ± 7 (3) Percent							
COCCOCCOCCOCCCNc1nc(C(=O)NCCOCCOCCOCCOCCOCCOCCOCCOCCOCCOCCOCCOC)c(NCCCOCCOCCOCCOC)nc1C(=O)NCCOCCOCCOCCOCCOCCOCCOCCOCCOCCOCCOCCOC [Compound 15, 3,6-Bis(2,5,8,11-tetraoxatetradecan-14-ylamino)-N^2,N^5-di(2,5,8,11,14,17,20,23,26,29,32,35-dodecaoxaheptatriacontan-37-yl)pyrazine-2,5-dicarboxamide]	86 ± 1 (3) Percent	603 nm	492 nm					
COCCOCCOCCOCCOCCOCCOCCOCCOCCOCCOCCOCCOCCOCCOCCOCCOCCOCCOCCOCCOCCOCCOCCOCCCNc1nc(C(=O)NCCOCCOCCOCCOCCOCCOCCOCCOCCOCCOCCOCCOCCOCCOCCOCCOCCOCCOCCOCCOCCOCCOCCOCCOC)c(NCCCOCCOCCOCCOCCOCCOCCOCCOCCOCCOCCOCCOCCOCCOCCOCCOCCOCCOCCOCCOCCOCCOCCOCCOC)nc1C(=O)NCCOCCOCCOCCOCCOCCOCCOCCOCCOCCOCCOCCOCCOCCOCCOCCOCCOCCOCCOCCOCCOCCOCCOCCOC [Compound 5, 3,6-bis(2,5,8,11,14,17,20,23,26,29,32,35,38,41,44,47,50,53,56,59,62,65,68,71-tetracosaoxatetraheptacontan-74-ylamino)-N^2,N^5-di(2,5,8,11,14,17,20,23,26,29,32,35,38,41,44,47,50,53,56,59,62,65,68,71-tetracosaoxatriheptacontan-73-yl)pyrazine-2,5-dicarboxamide]	86 ± 7 (3) Percent	603 nm	495 nm	17.6 ± 0.9 (4) min				

More lines, now with the values ahead:

Percent found in Urine (6 hrs) [1]	Photophysical Properties Emission λmax [2]	Photophysical Properties Excitation λmax [2]	Tissue Clearance (Optical) T1/2β [3]	clearance [4]	Pharmacokinetics T1/2β [4]	clearance ([5]; male, Sprague-Dawley, iv, with probenecid 70 mg/kg, 10 min prior to the test compound, read-out: Pharmacokinetics Clearance, probenecid challenge experiment)	Pharmacokinetics T1/2β, probenecid challenge experiment [5]	Structure (SMILES)
97 ± 2 (3) Percent	602 nm	494 nm	14.6 ± 1.1 (4) min					COCCOCCOCCOCCCNc1nc(C(=O)NCCOCCOCCOCCOCCOCCOCCOCCOCCOCCOCCOCCOCCOCCOCCOCCOCCOCCOCCOCCOCCOCCOCCOCCOC)c(NCCCOCCOCCOCCOC)nc1C(=O)NCCOCCOCCOCCOCCOCCOCCOCCOCCOCCOCCOCCOCCOCCOCCOCCOCCOCCOCCOCCOCCOCCOCCOCCOC [Compound 7, 3,6-Bis(2,5,8,11-tetraoxatetradecan-14-ylamino)-N^2,N^5-di(2,5,8,11,14,17,20,23,26,29,32,35,38,41,44,47,50,53,56,59,62,65,68,71-tetracosaoxatriheptacontan-73-yl)pyrazine-2,5-dicarboxamide]
92 ± 4 (3) Percent	603 nm	498 nm	19.1 ± 0.8 (4) min					COCCOCCOCCOCCOCCOCCOCCOCCCNc1nc(C(=O)NCCOCCOCCOCCOCCOCCOCCOCCOCCOCCOCCOCCOCCOCCOCCOCCOCCOCCOCCOCCOCCOCCOCCOCCOC)c(NCCCOCCOCCOCCOCCOCCOCCOCCOC)nc1C(=O)NCCOCCOCCOCCOCCOCCOCCOCCOCCOCCOCCOCCOCCOCCOCCOCCOCCOCCOCCOCCOCCOCCOCCOCCOC [Compound 6, 3,6-bis(2,5,8,11,14,17,20,23-octaoxahexacosan-26-ylamino)-N^2,N^5-di(2,5,8,11,14,17,20,23,26,29,32,35,38,41,44,47,50,53,56,59,62,65,68,71-tetracosaoxatriheptacontan-73-yl)pyrazine-2,5-dicarboxamide]
97 ± 0.4 (3)^b Percent	605 nm	500 nm	19.9 ± 2.4 (3) min	3.1 ± 0.2 mL/min	18.8 ± 0.6 (3) min	3.3 mL/min	[18.0 ± 0.3 (3)]^c min	COCCOCCOCCOCCOCCOCCOCCOCCOCCOCCOCCOCCCNc1nc(C(=O)NCCOCCOCCOCCOCCOCCOCCOCCOCCOCCOCCOCCOC)c(NCCCOCCOCCOCCOCCOCCOCCOCCOCCOCCOCCOCCOC)nc1C(=O)NCCOCCOCCOCCOCCOCCOCCOCCOCCOCCOCCOCCOC [Compound 1, 3,6-Bis(2,5,8,11,14,17,20,23,26,29,32,35-dodecaoxaoctatriacontan-38-ylamino)-N^2,N^5-di(2,5,8,11,14,17,20,23,26,29,32,35-dodecaoxaheptatriacontan-37-yl)pyrazine-2,5-dicarboxamide]
89 ± 2 (3) Percent	602 nm	499 nm	20.4 ± 2.0 (4) min	2.5 ± 0.2 mL/min	30.5 ± 3.2 (3) min			COCCOCCOCCOCCOCCOCCOCCOCCOCCOCCOCCOCCCNc1nc(C(=O)NCCOCCOCCOCCOCCOCCOCCOCCOCCOCCOCCOCCOCCOCCOCCOCCOCCOCCOCCOCCOCCOCCOCCOCCOC)c(NCCCOCCOCCOCCOCCOCCOCCOCCOCCOCCOCCOCCOC)nc1C(=O)NCCOCCOCCOCCOCCOCCOCCOCCOCCOCCOCCOCCOCCOCCOCCOCCOCCOCCOCCOCCOCCOCCOCCOCCOC [Compound 3, 3,6-Bis(2,5,8,11,14,17,20,23,26,29,32,35-dodecaoxaoctatriacontan-38-ylamino)-N^2,N^5-di(2,5,8,11,14,17,20,23,26,29,32,35,38,41,44,47,50,53,56,59,62,65,68,71-tetracosaoxatriheptacontan-73-yl)pyrazine-2,5-dicarboxamide]
